Reference: US8999982B2, “Pharmaceutically active compounds as Axl inhibitors” (Lead Discovery Center GmbH, priority 2010, dated 2015)
Counter-ions that a name gives are not always drawn.

What was measured:
Axl [1] = molecular target: T1, Axl (Homo sapiens (Human), UniProt P30530); test: Cellular Axl phosphorylation assay; assay type: cell-based; details: HEK293 cells transfected with Axl cDNA, 1 hour incubation
Experimental: 3. Cellular Axl Phosphorylation Assay:
HEK293 embryonal kidney fibroblasts were transfected in 96 wells with a plasmid containing Axl cDNA. As transfection reagent Superfect (Qiagen) was used. Transfection of the sole vector backbone served as negative control of Axl expression. After overnight incubation the cellular supernatant was replaced with fresh medium. On the following day the Axl-expressing cells were incubated for 1 hour with a compound according to formula (I) at the suitable concentrations. […] The mesoscale technology was used for quantification.

Axl [2] = molecular target: T1, Axl; test: Axl binding assay
Experimental: Binding of the tracer to the kinase is detected using an EU-labeled anti-tag antibody. […] Binding of an inhibitor to the kinase competes for binding with the tracer, resulting in a loss of FRET-signal. At first a compound according to formula (I) was diluted in 20 mM Hepes pH 8.0, 1 mM DTT, 10 mM MgCl2 and 0.01% Brij35.

T1 sequence (P30530 26-894): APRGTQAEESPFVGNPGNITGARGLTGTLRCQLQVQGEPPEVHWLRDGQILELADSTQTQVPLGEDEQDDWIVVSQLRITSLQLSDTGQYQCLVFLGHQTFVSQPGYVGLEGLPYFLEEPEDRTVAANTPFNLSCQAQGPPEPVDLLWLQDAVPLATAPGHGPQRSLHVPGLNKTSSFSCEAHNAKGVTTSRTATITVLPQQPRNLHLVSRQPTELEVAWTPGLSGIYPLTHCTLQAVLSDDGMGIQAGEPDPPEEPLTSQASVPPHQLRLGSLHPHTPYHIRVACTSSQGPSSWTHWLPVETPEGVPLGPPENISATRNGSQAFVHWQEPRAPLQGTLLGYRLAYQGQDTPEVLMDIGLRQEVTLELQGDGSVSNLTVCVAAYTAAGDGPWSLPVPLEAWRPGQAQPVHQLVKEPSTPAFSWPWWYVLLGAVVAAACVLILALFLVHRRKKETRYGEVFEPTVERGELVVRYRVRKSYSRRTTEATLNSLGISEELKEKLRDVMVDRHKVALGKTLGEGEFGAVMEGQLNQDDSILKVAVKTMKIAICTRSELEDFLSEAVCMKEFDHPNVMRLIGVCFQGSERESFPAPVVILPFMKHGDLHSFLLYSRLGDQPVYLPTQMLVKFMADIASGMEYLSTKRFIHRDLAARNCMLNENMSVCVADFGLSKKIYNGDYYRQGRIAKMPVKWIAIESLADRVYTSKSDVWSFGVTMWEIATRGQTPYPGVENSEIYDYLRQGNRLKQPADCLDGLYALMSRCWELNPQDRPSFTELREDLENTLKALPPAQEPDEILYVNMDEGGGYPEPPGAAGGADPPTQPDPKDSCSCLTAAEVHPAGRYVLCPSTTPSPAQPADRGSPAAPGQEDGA

Structure (SMILES)	IC50 (Axl [1]) [nM]	IC50 (Axl [2]) [nM]
CCOc1cn(-c2ccc(F)cc2Cl)nc1C(=O)Nc1ccc(Oc2ccnc3cc(OCCCN4CCOCC4)c(OC)cc23)c(F)c1 [Example 47, 1-(2-chloro-4-fluoro-phenyl)-4-ethoxy-N-[3-fluoro-4-[[6-methoxy-7-(3-morpholinopropoxy)-4-quinolyl]oxy]phenyl]pyrazole-3-carboxamide]	< 500	< 500
COc1cc2c(Oc3ccc(NC(=O)c4nn(-c5ccc(F)cc5)cc4OCCN(C)C)cc3F)ccnc2cc1OCCCN1CCOCC1 [Example 48, 4-(2-dimethylaminoethoxy)-N-[3-fluoro-4-[[6-methoxy-7-(3-morpholinopropoxy)-4-quinolyl]oxy]phenyl]-1-(4-fluorophenyl)pyrazole-3-carboxamide]	< 500	< 500
CCOc1cn(-c2ccc(F)cc2Br)nc1C(=O)Nc1ccc(Oc2ccnc3cc(OCCCN4CCOCC4)c(OC)cc23)c(F)c1 [Example 49, 1-(2-bromo-4-fluoro-phenyl)-4-ethoxy-N-[3-fluoro-4-[[6-methoxy-7-(3-morpholinopropoxy)-4-quinolyl]oxy]phenyl]pyrazole-3-carboxamide]	< 500	< 500
COCCOc1cn(-c2ccc(F)cc2)nc1C(=O)Nc1ccc(Oc2ccnc3cc(OCCCN4CCOCC4)c(OC)cc23)c(F)c1 [Example 50, N-[3-fluoro-4-[[6-methoxy-7-(3-morpholinopropoxy)-4-quinolyl]oxy]phenyl]-1-(4-fluorophenyl)-4-(2-methoxyethoxy)pyrazole-3-carboxamide]	< 500	< 500
COc1cc2c(Oc3ccc(NC(=O)c4nn(-c5ccc(F)cc5)cc4OCc4ccccc4)cc3F)ccnc2cc1OCCCN1CCOCC1 [Example 51, 4-benzyloxy-N-[3-fluoro-4-[[6-methoxy-7-(3-morpholinopropoxy)-4-quinolyl]oxy]phenyl]-1-(4-fluorophenyl)pyrazole-3-carboxamide]	< 500	< 500
COc1cc2c(Oc3ccc(NC(=O)c4nn(-c5ccc(F)cc5)cc4[N+](=O)[O-])cc3F)ccnc2cc1OCCCN1CCOCC1 [Example 52, N-[3-fluoro-4-[[6-methoxy-7-(3-morpholinopropoxy)-4-quinolyl]oxy]phenyl]-1-(4-fluorophenyl)-4-nitro-pyrazole-3-carboxamide]	< 500	< 500
COc1cc2c(Oc3ccc(NC(=O)c4nn(-c5ccc(F)cc5)cc4N)cc3F)ccnc2cc1OCCCN1CCOCC1 [Example 53, 4-amino-N-[3-fluoro-4-[[6-methoxy-7-(3-morpholinopropoxy)-4-quinolyl]oxy]phenyl]-1-(4-fluorophenyl)pyrazole-3-carboxamide]	< 500	< 500
CCOc1cn(-c2ccc(F)cc2)nc1C(=O)Nc1ccc(Oc2ccnc3cc(OCCCN)c(OC)cc23)c(F)c1 [Example 54, N-[4-[[7-(3-aminopropoxy)-6-methoxy-4-quinolyl]oxy]-3-fluoro-phenyl]-4-ethoxy-1-(4-fluorophenyl)pyrazole-3-carboxamide]	< 500	< 500
CCOc1cn(-c2ccc(F)cc2C)nc1C(=O)Nc1ccc(Oc2ccnc3cc(OCCCN)c(OC)cc23)c(F)c1 [Example 55, N-[4-[[7-(3-aminopropoxy)-6-methoxy-4-quinolyl]oxy]-3-fluoro-phenyl]-4-ethoxy-1-(4-fluoro-2-methyl-phenyl)pyrazole-3-carboxamide]	< 500	< 500
CCOc1oc(-c2ccc(F)cc2)nc1C(=O)Nc1ccc(Oc2ccnc3cc(OCCCN)c(OC)cc23)c(F)c1 [Example 56, N-[4-[[7-(3-aminopropoxy)-6-methoxy-4-quinolyl]oxy]-3-fluoro-phenyl]-5-ethoxy-2-(4-fluorophenyl)oxazole-4-carboxamide]	< 500	< 500
CCOc1cn(-c2ccc(F)cc2C)nc1C(=O)Nc1ccc(Oc2ccnc3cc(OCCCN4CCN(C)CC4)c(OC)cc23)c(F)c1 [Example 57, 4-ethoxy-N-[3-fluoro-4-[[6-methoxy-7-[3-(4-methylpiperazin-1-yl)propoxy]-4-quinolyl]oxy]phenyl]-1-(4-fluoro-2-methyl-phenyl)pyrazole-3-carboxamide]	< 500	< 500
CCOc1cn(-c2ccc(F)cc2)nc1C(=O)Nc1ccc(Oc2ccnc3cc(OCCCN4CCN(C)CC4)c(OC)cc23)c(F)c1 [Example 58, 4-ethoxy-N-[3-fluoro-4-[[6-methoxy-7-[3-(4-methylpiperazin-1-yl)propoxy]-4-quinolyl]oxy]phenyl]-1-(4-fluorophenyl)pyrazole-3-carboxamide]	< 500	< 500
COc1cc2c(Oc3ccc(NC(=O)c4nn(-c5ccc(F)cc5)cc4OC)cc3F)ccnc2cc1OCCCN1CCN(C)CC1 [Example 59, N-[3-fluoro-4-[[6-methoxy-7-[3-(4-methylpiperazin-1-yl)propoxy]-4-quinolyl]oxy]phenyl]-1-(4-fluorophenyl)-4-methoxy-pyrazole-3-carboxamide]	< 500	< 500
CCOc1cn(-c2ccc(F)cc2Cl)nc1C(=O)Nc1ccc(Oc2ccnc3cc(OCCCN4CCN(C)CC4)c(OC)cc23)c(F)c1 [Example 60, 1-(2-chloro-4-fluoro-phenyl)-4-ethoxy-N-[3-fluoro-4-[[6-methoxy-7-[3-(4-methylpiperazin-1-yl)propoxy]-4-quinolyl]oxy]phenyl]pyrazole-3-carboxamide]	< 500	< 500
COc1cc2c(Oc3ccc(NC(=O)c4nn(-c5ccc(F)cc5)cc4OCC4CC4)cc3F)ccnc2cc1OCCCN1CCN(C)CC1 [Example 61, 4-(cyclopropylmethoxy)-N-[3-fluoro-4-[[6-methoxy-7-[3-(4-methylpiperazin-1-yl)propoxy]-4-quinolyl]oxy]phenyl]-1-(4-fluorophenyl)pyrazole-3-carboxamide]	< 500	< 500
COc1cc2c(Oc3ccc(NC(=O)c4nn(-c5ccc(F)cc5)cc4OC(C)C)cc3F)ccnc2cc1OCCCN1CCN(C)CC1 [Example 62, N-[3-fluoro-4-[[6-methoxy-7-[3-(4-methylpiperazin-1-yl)propoxy]-4-quinolyl]oxy]phenyl]-1-(4-fluorophenyl)-4-isopropoxy-pyrazole-3-carboxamide]	< 500	< 500
CCOc1oc(-c2ccc(F)cc2)nc1C(=O)Nc1ccc(Oc2ccnc3cc(OCCCN4CCN(C)CC4)c(OC)cc23)c(F)c1 [Example 63, 5-ethoxy-N-[3-fluoro-4-[[6-methoxy-7-[3-(4-methylpiperazin-1-yl)propoxy]-4-quinolyl]oxy]phenyl]-2-(4-fluorophenyl)oxazole-4-carboxamide]	< 500	< 500
COc1cc2c(Oc3ccc(NC(=O)c4nn(-c5ccc(F)cc5)cc4OCC4CC4)cc3F)ccnc2cc1OCCCN1CCNCC1 [Example 64, 4-(cyclopropylmethoxy)-N-[3-fluoro-4-[[6-methoxy-7-(3-piperazin-1-ylpropoxy)-4-quinolyl]oxy]phenyl]-1-(4-fluorophenyl)pyrazole-3-carboxamide trifluoroacetic acid salt]	< 500	< 500
CCOc1cn(-c2ccc(F)cc2)nc1C(=O)Nc1ccc(Oc2ccnc3cc(OCCCN4CCNCC4)c(OC)cc23)c(F)c1 [Example 65, 4-ethoxy-N-[3-fluoro-4-[[6-methoxy-7-(3-piperazin-1-ylpropoxy)-4-quinolyl]oxy]phenyl]-1-(4-fluorophenyl)pyrazole-3-carboxamide]	< 500	< 500
COc1cc2c(Oc3ccc(NC(=O)c4nn(-c5ccc(F)cc5)cc4OC)cc3F)ccnc2cc1OCCCN1CCNCC1 [Example 66, N-[3-fluoro-4-[[6-methoxy-7-(3-piperazin-1-ylpropoxy)-4-quinolyl]oxy]phenyl]-1-(4-fluorophenyl)-4-methoxy-pyrazole-3-carboxamide]	< 500	< 500
COc1cc2c(Oc3ccc(NC(=O)c4nn(-c5ccc(F)cc5)cc4OC(C)C)cc3F)ccnc2cc1OCCCN1CCNCC1 [Example 67, N-[3-fluoro-4-[[6-methoxy-7-(3-piperazin-1-ylpropoxy)-4-quinolyl]oxy]phenyl]-1-(4-fluorophenyl)-4-isopropoxy-pyrazole-3-carboxamide]	< 500	< 500
CCOc1cn(-c2ccc(F)cc2Cl)nc1C(=O)Nc1ccc(Oc2ccnc3cc(OCCCN4CCNCC4)c(OC)cc23)c(F)c1 [Example 68, 1-(2-chloro-4-fluoro-phenyl)-4-ethoxy-N-[3-fluoro-4-[[6-methoxy-7-(3-piperazin-1-ylpropoxy)-4-quinolyl]oxy]phenyl]pyrazole-3-carboxamide]	< 500	< 500
CCOc1cn(-c2ccc(F)cc2C)nc1C(=O)Nc1ccc(Oc2ccnc3cc(OCCCN4CCNCC4)c(OC)cc23)c(F)c1 [Example 69, 4-ethoxy-N-[3-fluoro-4-[[6-methoxy-7-(3-piperazin-1-ylpropoxy)-4-quinolyl]oxy)phenyl]-1-(4-fluoro-2-methyl-phenyl)pyrazole-3-carboxamide]	< 500	< 500
COCCOc1cn(-c2ccc(F)cc2)nc1C(=O)Nc1ccc(Oc2ccnc3cc(OCCCN4CCNCC4)c(OC)cc23)c(F)c1 [Example 70, N-[3-fluoro-4-[[6-methoxy-7-(3-piperazin-1-ylpropoxy)-4-quinolyl]oxy]phenyl]-1-(4-fluorophenyl)-4-(2-methoxyethoxy)pyrazole-3-carboxamide]	< 500	< 500
